Assay results taken from the NIST ThermoML archive (doi:10.1021/acs.jced.8b00723).
± gives the expanded uncertainty stated by the source.

Test: an = ratio of the nth substance listed
Details: 308.15 K, 100 kPa, Liquid; for speed of sound: Single path-length method; for mass density: Vibrating tube method

speed of sound (a1 = 0.05) | speed of sound (a1 = 0.075) | speed of sound (a1 = 0.1) | mass density (a1 = 0.05) | mass density (a1 = 0.075) | mass density (a1 = 0.1) | speed of sound (a1 = 0.15) | mass density (a1 = 0.15) | Compound
1551.7 ± 0.6 m/s | 1566.2 ± 0.6 m/s | 1569.7 ± 0.6 m/s | 993.1 ± 10 kg/m3 | 991.8 ± 10 kg/m3 | 987.6 ± 10 kg/m3 | – | – | CC(C)O [propan-2-ol] + O
1542.9 ± 0.6 m/s | – | 1559.2 ± 0.6 m/s | 990.6 ± 10 kg/m3 | – | 982.8 ± 10 kg/m3 | 1590.4 ± 0.6 m/s | 971.7 ± 10 kg/m3 | CCO [ethanol] + O
1533.2 ± 0.5 m/s | – | 1543.5 ± 0.5 m/s | 988.6 ± 10 kg/m3 | – | 980.6 ± 10 kg/m3 | 1566.7 ± 0.5 m/s | 971 ± 10 kg/m3 | CO [methanol] + O
